Experiments:
[1] = hygroscopic testing (solvent content before and after); conditions: for Final (Solvent content): after hygroscopic testing at 25° C.±2° C. and 80% RH±2° C. for 24 h, solvent replaced with water; for Initial (Solvent content): before hygroscopic testing
[2] = hygroscopicity at moderate or high relative humidity at 25° C.; assay type: physicochemical
Text: Further, the isolation of Darunavir ethanolate involves special precautions during isolation, drying and powder processing, which is onerous during the large scale manufacturing of Darunavir ethanolate.

Row | Compound | Final (Solvent content) [1] | Initial (Solvent content) [1] | hygroscopicity / conversion to hydrate [2]
1 | CC(C)CN(C[C@@H](O)[C@H](Cc1ccccc1)NC(=O)O[C@H]1CO[C@H]2OCC[C@H]21)S(=O)(=O)c1ccc(N)cc1 [Darunavir ethanolate] | 0.67% | 6.75% | hygroscopic and converts to Darunavir hydrate
2 | CC(C)CN(C[C@@H](O)[C@H](Cc1ccccc1)NC(=O)O[C@H]1CO[C@H]2OCC[C@H]21)S(=O)(=O)c1ccc(N)cc1 [Darunavir propylene glycolate] | 10.37% | 11.51% | 
